One assay concerns U-937. Kind of assay: Antiproliferative activity against human U-937 cells incubated for 72 hrs by CCK8 assay. Type of assay: functional, cell-based. The settings on record: U-937, 72 h. A general note: Tetrazolium assays rely on reduction of a dye to a coloured formazan, in cell work by metabolically active cells.
For assay [1], the target named is Cyclin-dependent kinase 9 (Homo sapiens, UniProt P50750). Kind of assay: Inhibition of CDK9 (unknown origin) preincubated for 20 mins followed by [gamma-33P]ATP addition measured after 120 mins in presence of ATP by Hot-SpotSM kinase assay.
Sequence of Cyclin-dependent kinase 9 (P50750 whole entry): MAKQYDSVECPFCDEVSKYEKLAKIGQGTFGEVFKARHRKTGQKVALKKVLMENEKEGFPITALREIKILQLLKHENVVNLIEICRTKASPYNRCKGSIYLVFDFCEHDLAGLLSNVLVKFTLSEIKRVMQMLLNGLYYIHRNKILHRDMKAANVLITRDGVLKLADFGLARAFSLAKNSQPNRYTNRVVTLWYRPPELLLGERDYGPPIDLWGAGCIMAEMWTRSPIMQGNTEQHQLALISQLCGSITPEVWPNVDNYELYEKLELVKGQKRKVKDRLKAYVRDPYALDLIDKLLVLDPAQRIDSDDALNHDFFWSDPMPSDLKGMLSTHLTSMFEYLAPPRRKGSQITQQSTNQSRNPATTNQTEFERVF
For the next assay, the system named is Kasumi 1. As to the kind of experiment: Antiproliferative activity against human Kasumi 1 cells incubated for 72 hrs by CCK8 assay. The settings on record: Kasumi 1, 72 h. Type of assay: functional, cell-based.
Assay [2] in a line: Antiproliferative activity against human SKNO-1 cells incubated for 72 hrs by CCK8 assay. Type of assay: functional, cell-based. The settings on record: SKNO-1, 72 h.
The next assay relates to HL-60. Kind of assay: Antiproliferative activity against human HL-60 cells incubated for 72 hrs by CCK8 assay. Type of assay: functional, cell-based. The settings on record: HL-60, 72 h.
For the next assay, the target named is Histone deacetylase. As to the kind of experiment: Inhibition of HDAC in human nuclear extract using Ac-Arg-Gly-Lys(Ac)-AMC as substrate incubated overnight by fluorescence based assay. In kind it is subcellular, Nucleus. As to conditions: hela.

The term IC50 denotes the midpoint of a concentration-inhibition curve.

As to `O=C(CCCCCNC(=O)c1ccc(NC(=O)c2n[nH]cc2NC(=O)c2c(F)cccc2F)cc1)NO`, the IC50 in the assay on U-937 was over 10 µM; in assay [1], under 0.1 µM; in the assay on Kasumi 1 it was over 10 µM; in assay [2], over 10 µM; in the assay on HL-60 it was over 10 µM.

Regarding `O=C(CCCCCCN1CCC(NC(=O)c2n[nH]cc2NC(=O)c2c(Cl)cccc2Cl)CC1)NO`, the IC50 in the assay on U-937 was 0.47 µM; in assay [1], under 0.1 µM; with Kasumi 1 it was 6.41 µM; in assay [2], 3.09 µM; in the assay on HL-60 it was 1.09 µM; on Histone deacetylase it was under 1 µM.

Turning to `Nc1cc(Cl)c(Cl)cc1NC(=O)c1ccc(NC(=O)c2n[nH]cc2NC(=O)c2c(Cl)cccc2Cl)cc1`, the IC50 in the assay on U-937 was 5.92 µM; in assay [1], under 0.1 µM; in the assay on Kasumi 1, 8.42 µM; in assay [2], 5.54 µM; with HL-60 it was 9.76 µM.

With `O=C(CCCCCCN1CCC(NC(=O)c2n[nH]cc2NC(=O)c2c(F)cccc2F)CC1)NO`, the half-maximal inhibitory concentration (IC50) was 1.44 µM in the assay with U-937; under 0.1 µM in assay [1]; 1.96 µM in the assay with Kasumi 1; 1.08 µM in assay [2]; 1.01 µM in the assay with HL-60.

With `O=C(CCNC(=O)c1n[nH]cc1NC(=O)c1c(Cl)cccc1Cl)NO`, the IC50 with U-937 is over 10 µM; in assay [1] it was under 0.1 µM; with Kasumi 1, 3.87 µM; in assay [2] it was over 10 µM; in the assay with HL-60 it was 10 µM.

Regarding `O=C(CCCN1CCC(NC(=O)c2n[nH]cc2NC(=O)c2c(F)cccc2F)CC1)NO`, the IC50 is over 10 µM in the assay on U-937; under 0.1 µM in assay [1]; over 10 µM in the assay on Kasumi 1; 6.31 µM in assay [2]; 2.55 µM in the assay on HL-60.

For `O=C(CCCCNC(=O)c1ccc(NC(=O)c2n[nH]cc2NC(=O)c2c(F)cccc2F)cc1)NO`, the concentration for half-maximal inhibition (IC50) with U-937 is over 10 µM; in assay [1], under 0.1 µM; with Kasumi 1, over 10 µM; in assay [2], over 10 µM; in the assay on HL-60 it was over 10 µM.

`O=C(CCCCCN1CCC(NC(=O)c2n[nH]cc2NC(=O)c2c(Cl)cccc2Cl)CC1)NO`: the IC50 in the assay on U-937 was 1.84 µM; in assay [1] it was under 0.1 µM; in the assay on Kasumi 1 it was 6.19 µM; in assay [2], 3.02 µM; with HL-60, 1.75 µM.

Consider `O=C(CCCN1CCC(NC(=O)c2n[nH]cc2NC(=O)c2c(Cl)cccc2Cl)CC1)NO`, for which the half-maximal inhibitory concentration (IC50) was 1.61 µM with U-937; under 0.1 µM in assay [1]; 3.52 µM with Kasumi 1; 2.23 µM in assay [2]; 1.24 µM in the assay on HL-60.

Consider `Nc1cc(Br)c(Br)cc1NC(=O)c1ccc(NC(=O)c2n[nH]cc2NC(=O)c2c(Cl)cccc2Cl)cc1`, for which the IC50 with U-937 was 9.13 µM; in assay [1], under 0.1 µM; in the assay with Kasumi 1, 6.92 µM; in assay [2], 4.56 µM; with HL-60, 6.86 µM.

`Cc1cc(N)c(NC(=O)c2ccc(NC(=O)c3n[nH]cc3NC(=O)c3c(F)cccc3F)cc2)cc1C`: the IC50 in the assay with U-937 is over 10 µM; in assay [1], under 0.1 µM; in the assay on Kasumi 1, over 10 µM; in assay [2], 6.89 µM; with HL-60, over 10 µM.

In the case of `O=C(CCN1CCC(NC(=O)c2n[nH]cc2NC(=O)c2c(F)cccc2F)CC1)NO`, the IC50 was over 10 µM in the assay with U-937; under 0.1 µM in assay [1]; 4.8 µM in the assay on Kasumi 1; 9.28 µM in assay [2]; 4.45 µM with HL-60.

On to `O=C(CCCCCN1CCC(NC(=O)c2n[nH]cc2NC(=O)c2c(F)cccc2F)CC1)NO`, for which the half-inhibitory concentration (IC50) in the assay on U-937 was over 10 µM; in assay [1], under 0.1 µM; in the assay on Kasumi 1, over 10 µM; in assay [2], over 10 µM; with HL-60, 1.81 µM.

In the case of `Nc1cc(Cl)c(Cl)cc1NC(=O)c1ccc(NC(=O)c2n[nH]cc2NC(=O)c2c(F)cccc2F)cc1`, the concentration for half-maximal inhibition (IC50) in the assay on U-937 is 6.8 µM; in assay [1], under 0.1 µM; with Kasumi 1, 7.79 µM; in assay [2], 7.28 µM; with HL-60, over 10 µM.

Consider `O=C(CCCNC(=O)c1ccc(NC(=O)c2n[nH]cc2NC(=O)c2c(Cl)cccc2Cl)cc1)NO`, for which the IC50 was over 10 µM in the assay on U-937; under 0.1 µM in assay [1]; over 10 µM with Kasumi 1; over 10 µM in assay [2]; over 10 µM with HL-60.

Regarding `O=C(CCCNC(=O)c1ccc(NC(=O)c2n[nH]cc2NC(=O)c2c(F)cccc2F)cc1)NO`, the IC50 in the assay with U-937 is over 10 µM; in assay [1], under 0.1 µM; in the assay with Kasumi 1, 5.6 µM; in assay [2], over 10 µM; with HL-60 it was over 10 µM.

With `O=C(CNC(=O)c1n[nH]cc1NC(=O)c1c(Cl)cccc1Cl)NO`, the IC50 with U-937 is over 10 µM; in assay [1], under 0.1 µM; in the assay on Kasumi 1, over 10 µM; in assay [2], over 10 µM; in the assay with HL-60, over 10 µM.

`Nc1cc(Br)c(Br)cc1NC(=O)c1ccc(NC(=O)c2n[nH]cc2NC(=O)c2c(F)cccc2F)cc1`: the concentration for half-maximal inhibition (IC50) in the assay with U-937 was over 10 µM; in assay [1], under 0.1 µM; in the assay on Kasumi 1 it was over 10 µM; in assay [2], over 10 µM; in the assay with HL-60, over 10 µM.

Consider `O=C(CN1CCC(NC(=O)c2n[nH]cc2NC(=O)c2c(Cl)cccc2Cl)CC1)NO`, for which the IC50 with U-937 is 0.94 µM; in assay [1], under 0.1 µM; with Kasumi 1, 1.54 µM; in assay [2] it was 1.54 µM; in the assay with HL-60 it was 1.16 µM.

With `O=C(CCCCN1CCC(NC(=O)c2n[nH]cc2NC(=O)c2c(Cl)cccc2Cl)CC1)NO`, the half-maximal inhibitory concentration (IC50) is 1.83 µM in the assay with U-937; under 0.1 µM in assay [1]; 3.72 µM in the assay on Kasumi 1; 2.32 µM in assay [2]; 1.1 µM in the assay with HL-60.

Take `Nc1ccccc1NC(=O)c1ccc(NC(=O)c2n[nH]cc2NC(=O)c2c(F)cccc2F)cc1`: the IC50 in the assay with U-937 was 5.6 µM; in assay [1] it was under 0.1 µM; with Kasumi 1, 3.1 µM; in assay [2], 2.65 µM; in the assay on HL-60 it was over 10 µM.

As for `O=C(CCNC(=O)c1ccc(NC(=O)c2n[nH]cc2NC(=O)c2c(Cl)cccc2Cl)cc1)NO`, the concentration for half-maximal inhibition (IC50) with U-937 is over 10 µM; in assay [1] it was under 0.1 µM; with Kasumi 1, over 10 µM; in assay [2], over 10 µM; in the assay with HL-60 it was over 10 µM.

Regarding `O=C(CCCCCNC(=O)c1ccc(NC(=O)c2n[nH]cc2NC(=O)c2c(Cl)cccc2Cl)cc1)NO`, the IC50 in the assay with U-937 was over 10 µM; in assay [1], under 0.1 µM; in the assay with Kasumi 1, over 10 µM; in assay [2] it was over 10 µM; with HL-60 it was over 10 µM.

Consider `O=C(CCNC(=O)c1ccc(NC(=O)c2n[nH]cc2NC(=O)c2c(F)cccc2F)cc1)NO`, for which the half-inhibitory concentration (IC50) in the assay on U-937 is over 10 µM; in assay [1] it was under 0.1 µM; with Kasumi 1, 8.81 µM; in assay [2], 5.97 µM; with HL-60, over 10 µM.

In the case of `O=C(CCCNC(=O)c1n[nH]cc1NC(=O)c1c(Cl)cccc1Cl)NO`, the 50% inhibitory concentration (IC50) is over 10 µM with U-937; under 0.1 µM in assay [1]; over 10 µM with Kasumi 1; over 10 µM in assay [2]; over 10 µM in the assay on HL-60.

Turning to `O=C(CCCCNC(=O)c1n[nH]cc1NC(=O)c1c(Cl)cccc1Cl)NO`, the IC50 in the assay on U-937 was over 10 µM; in assay [1] it was under 0.1 µM; in the assay with Kasumi 1, over 10 µM; in assay [2] it was over 10 µM; in the assay with HL-60, over 10 µM.

As to `O=C(CCCCN1CCC(NC(=O)c2n[nH]cc2NC(=O)c2c(F)cccc2F)CC1)NO`, the half-inhibitory concentration (IC50) was 7.34 µM with U-937; under 0.1 µM in assay [1]; 6.44 µM in the assay with Kasumi 1; 6.53 µM in assay [2]; 1.77 µM with HL-60.

As for `O=C(Nc1ccccc1)c1ccc(NC(=O)c2n[nH]cc2NC(=O)c2c(Cl)cccc2Cl)cc1`, the concentration for half-maximal inhibition (IC50) in the assay on U-937 was 4.68 µM; in assay [1], under 0.1 µM; in the assay with Kasumi 1 it was 3.83 µM; in assay [2], 3.27 µM; with HL-60, 5.84 µM.

For `O=C(CNC(=O)c1ccc(NC(=O)c2n[nH]cc2NC(=O)c2c(F)cccc2F)cc1)NO`, the IC50 was over 10 µM in the assay on U-937; under 0.1 µM in assay [1]; over 10 µM with Kasumi 1; over 10 µM in assay [2]; over 10 µM in the assay on HL-60.

Turning to `O=C(CCN1CCC(NC(=O)c2n[nH]cc2NC(=O)c2c(Cl)cccc2Cl)CC1)NO`, the IC50 with U-937 was 0.91 µM; in assay [1], under 0.1 µM; in the assay with Kasumi 1, 1.38 µM; in assay [2], 1.67 µM; in the assay on HL-60, 1.54 µM.

As to `Cc1cc(N)c(NC(=O)c2ccc(NC(=O)c3n[nH]cc3NC(=O)c3c(Cl)cccc3Cl)cc2)cc1C`, the IC50 was 1.14 µM in the assay with U-937; under 0.1 µM in assay [1]; 0.93 µM with Kasumi 1; 2.56 µM in assay [2]; 1.02 µM in the assay with HL-60.

Regarding `O=C(CCCCNC(=O)c1ccc(NC(=O)c2n[nH]cc2NC(=O)c2c(Cl)cccc2Cl)cc1)NO`, the IC50 in the assay on U-937 is 8.52 µM; in assay [1] it was under 0.1 µM; in the assay with Kasumi 1 it was over 10 µM; in assay [2], over 10 µM; with HL-60 it was over 10 µM.

As for `O=C(CCCCCNC(=O)c1n[nH]cc1NC(=O)c1c(Cl)cccc1Cl)NO`, the half-inhibitory concentration (IC50) in the assay on U-937 is over 10 µM; in assay [1], under 0.1 µM; with Kasumi 1, over 10 µM; in assay [2], over 10 µM; in the assay with HL-60, over 10 µM.

(Values after ChEMBL document CHEMBL5346903, “Discovery of novel and bioavailable histone deacetylases and cyclin-dependent kinases dual inhibitor to impair the stemness of leukemia cells” (Eur J Med Chem, 2023).)
